In ChEMBL document CHEMBL1127173, “EPSP synthase inhibitor deisgn III. Synthesis & evaluation of a new 5-oxamic acid analog of EPSP which incorporates a malonate ether as a 3-phosphate mimic” (Bioorg Med Chem Lett, 1993) one finds Ki and IC50 data, which are given here for four compounds.

The structures appear in SMILES notation. pIC50, pKi: −log10 of the molar value.

The target in this experiment is T1, 3-phosphoshikimate 1-carboxyvinyltransferase (Escherichia coli K-12, UniProt P0A6D3).
T1 sequence (P0A6D3 whole entry): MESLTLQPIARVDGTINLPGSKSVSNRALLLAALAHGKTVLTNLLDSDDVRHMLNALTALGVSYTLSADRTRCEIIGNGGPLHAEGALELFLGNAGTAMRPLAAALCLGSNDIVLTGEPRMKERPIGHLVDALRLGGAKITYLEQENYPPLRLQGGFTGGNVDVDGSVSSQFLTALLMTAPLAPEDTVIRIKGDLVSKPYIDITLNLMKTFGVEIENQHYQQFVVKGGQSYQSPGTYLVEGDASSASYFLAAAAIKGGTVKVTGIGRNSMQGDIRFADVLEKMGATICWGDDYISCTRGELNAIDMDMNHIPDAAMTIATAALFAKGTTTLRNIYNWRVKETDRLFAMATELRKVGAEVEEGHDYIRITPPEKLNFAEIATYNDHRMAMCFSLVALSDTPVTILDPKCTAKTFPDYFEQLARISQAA
The experiment is described as follows: The compound was tested for the inhibition of Escherichia coli 5-enolpyruvyl-shikimate-3-phosphate synthase (EPSP).

In turn, `O=C(O)C(=O)N[C@@H]1CC(C(=O)O)=C[C@@H](OC(C(=O)O)C(=O)O)[C@H]1O` had a pKi of 5.28.

`O=C(O)CO[C@@H]1CC(C(=O)O)=C[C@@H](OP(=O)(O)O)[C@H]1O` showed a pKi of 5.82.

Regarding `O=C(O)C(=O)N[C@@H]1CC(C(=O)O)=C[C@@H](O)[C@H]1O`, the pIC50 is less than 2.00.

For `N[C@@H]1CC(C(=O)O)=C[C@@H](OP(=O)(O)O)[C@H]1O`, the pKi is 4.05.

For orientation: pKi means −log10 of the Ki, conventionally taken in molar units. Read a high pKi as a low Ki. For orientation: pIC50 means −log10 of the IC50, conventionally taken in molar units. Read a high pIC50 as a low IC50.
